Bridge positions count the residues as written; N and C are the ends. Square brackets hold non-standard residues; d marks the D form. Peptide text beside a SMILES is read from it. Nle = CCCC[C@H](N)C(=O)O
Experiments:
Kv1.1 = target: T1, Kv1.1 (Homo sapiens, UniProt Q09470); assay: cell-based; details: for IC50: CHO cells, whole-cell patch clamp, read-out: Potency IC50 (nM) Kv1.1; for Selectivity Kv1.1/Kv1.3: ratio IC50[Kv1.1]/IC50[Kv1.3]
T1 construct: expressed in transfected cells; host or cells: Chinese Hamster Ovary (CHO)
T1 sequence (Q09470 whole entry): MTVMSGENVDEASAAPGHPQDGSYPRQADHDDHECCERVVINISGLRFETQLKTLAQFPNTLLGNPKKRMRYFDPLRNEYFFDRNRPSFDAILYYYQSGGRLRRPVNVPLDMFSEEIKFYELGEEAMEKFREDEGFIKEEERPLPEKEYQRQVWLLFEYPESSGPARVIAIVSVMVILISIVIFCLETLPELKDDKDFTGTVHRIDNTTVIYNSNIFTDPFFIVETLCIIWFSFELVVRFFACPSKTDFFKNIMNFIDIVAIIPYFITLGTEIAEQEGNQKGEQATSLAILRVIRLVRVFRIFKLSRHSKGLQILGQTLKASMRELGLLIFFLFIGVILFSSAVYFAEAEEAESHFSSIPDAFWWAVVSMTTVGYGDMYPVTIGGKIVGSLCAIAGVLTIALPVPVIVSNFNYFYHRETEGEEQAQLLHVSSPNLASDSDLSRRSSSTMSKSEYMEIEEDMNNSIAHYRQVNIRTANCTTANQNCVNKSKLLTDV

Kv1.2 = target: T2, Kv1.2 (Homo sapiens, UniProt P16389); assay: cell-based; details: CHO cells, whole-cell patch clamp; read-out: Potency IC50 (nM) Kv1.2
T2 construct: expressed in transfected cells; host or cells: Chinese Hamster Ovary (CHO)
T2 sequence (P16389 whole entry): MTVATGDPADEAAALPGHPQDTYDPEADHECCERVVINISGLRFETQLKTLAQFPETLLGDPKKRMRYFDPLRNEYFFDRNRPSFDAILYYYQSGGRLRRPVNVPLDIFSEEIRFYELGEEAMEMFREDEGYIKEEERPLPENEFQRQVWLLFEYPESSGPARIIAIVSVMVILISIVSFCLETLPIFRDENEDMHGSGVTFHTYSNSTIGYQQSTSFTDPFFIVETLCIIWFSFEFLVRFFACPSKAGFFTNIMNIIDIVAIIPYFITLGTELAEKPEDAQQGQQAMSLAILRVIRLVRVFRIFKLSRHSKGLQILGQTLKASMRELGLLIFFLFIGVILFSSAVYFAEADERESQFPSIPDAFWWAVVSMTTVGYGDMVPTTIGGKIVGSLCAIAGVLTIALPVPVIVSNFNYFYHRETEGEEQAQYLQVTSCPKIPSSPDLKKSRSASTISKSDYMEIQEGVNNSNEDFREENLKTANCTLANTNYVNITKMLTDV

Kv1.6 = target: T3, Kv1.6 (Homo sapiens, UniProt P17658); assay: cell-based; details: for IC50: CHO cells, whole-cell patch clamp, read-out: Potency IC50 (nM) Kv1.6; for Selectivity Kv1.6/Kv1.3: ratio IC50[Kv1.6]/IC50[Kv1.3]
T3 construct: expressed in transfected cells; host or cells: Chinese Hamster Ovary (CHO)
T3 sequence (P17658 whole entry): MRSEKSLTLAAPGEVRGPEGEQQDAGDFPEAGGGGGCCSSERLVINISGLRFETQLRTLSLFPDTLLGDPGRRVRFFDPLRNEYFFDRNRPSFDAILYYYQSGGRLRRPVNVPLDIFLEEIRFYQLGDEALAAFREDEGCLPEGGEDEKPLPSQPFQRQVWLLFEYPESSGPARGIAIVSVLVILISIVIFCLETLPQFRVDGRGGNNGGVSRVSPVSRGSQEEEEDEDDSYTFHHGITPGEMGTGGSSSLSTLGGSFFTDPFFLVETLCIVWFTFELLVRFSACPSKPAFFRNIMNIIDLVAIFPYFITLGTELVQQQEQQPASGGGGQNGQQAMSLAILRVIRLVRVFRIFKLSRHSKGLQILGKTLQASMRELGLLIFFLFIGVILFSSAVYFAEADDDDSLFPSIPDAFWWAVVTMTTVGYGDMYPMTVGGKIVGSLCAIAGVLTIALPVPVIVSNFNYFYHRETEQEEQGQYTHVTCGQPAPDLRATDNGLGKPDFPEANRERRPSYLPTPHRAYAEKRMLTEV

Kv1.3 = target: T4, Kv1.3 (Homo sapiens, UniProt P22001); assay: cell-based; details: CHO cells, whole-cell patch clamp; read-out: Potency IC50 (nM) Kv1.3
T4 construct: expressed in transfected cells; host or cells: Chinese Hamster Ovary (CHO)
T4 sequence (P22001 whole entry): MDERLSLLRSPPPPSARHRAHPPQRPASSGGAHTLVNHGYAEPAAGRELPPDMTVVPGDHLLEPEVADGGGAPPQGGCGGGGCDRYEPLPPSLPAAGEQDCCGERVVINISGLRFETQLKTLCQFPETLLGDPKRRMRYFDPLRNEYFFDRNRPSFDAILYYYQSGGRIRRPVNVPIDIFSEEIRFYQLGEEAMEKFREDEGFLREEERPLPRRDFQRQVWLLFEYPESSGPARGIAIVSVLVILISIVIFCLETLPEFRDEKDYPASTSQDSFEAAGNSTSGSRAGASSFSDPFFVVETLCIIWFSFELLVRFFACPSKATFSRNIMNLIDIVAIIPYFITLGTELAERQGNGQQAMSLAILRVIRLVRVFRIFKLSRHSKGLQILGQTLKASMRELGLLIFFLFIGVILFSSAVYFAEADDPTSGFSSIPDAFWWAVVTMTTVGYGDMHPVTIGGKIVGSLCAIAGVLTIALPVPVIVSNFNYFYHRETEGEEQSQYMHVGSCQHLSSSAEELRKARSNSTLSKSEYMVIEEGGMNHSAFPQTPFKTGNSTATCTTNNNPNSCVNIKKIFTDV

in vivo = details: male, rat, sc, 70 nmol/kg
[1] = target: T5, human Kv1.3 voltage-gated K+ channel (Homo sapiens, UniProt P22001); assay: cell-based; details: inhibition of thallium flux, CHO-DUKX cells with human Kv1.3; read-out: IC50
T5 construct: host or cells: CHO-DUKX
T5 sequence (P22001 whole entry): as above

Rat whole blood = Rat whole blood (Rattus norvegicus, UniProt P15384)
Rat whole blood, sequence (P15384 whole entry): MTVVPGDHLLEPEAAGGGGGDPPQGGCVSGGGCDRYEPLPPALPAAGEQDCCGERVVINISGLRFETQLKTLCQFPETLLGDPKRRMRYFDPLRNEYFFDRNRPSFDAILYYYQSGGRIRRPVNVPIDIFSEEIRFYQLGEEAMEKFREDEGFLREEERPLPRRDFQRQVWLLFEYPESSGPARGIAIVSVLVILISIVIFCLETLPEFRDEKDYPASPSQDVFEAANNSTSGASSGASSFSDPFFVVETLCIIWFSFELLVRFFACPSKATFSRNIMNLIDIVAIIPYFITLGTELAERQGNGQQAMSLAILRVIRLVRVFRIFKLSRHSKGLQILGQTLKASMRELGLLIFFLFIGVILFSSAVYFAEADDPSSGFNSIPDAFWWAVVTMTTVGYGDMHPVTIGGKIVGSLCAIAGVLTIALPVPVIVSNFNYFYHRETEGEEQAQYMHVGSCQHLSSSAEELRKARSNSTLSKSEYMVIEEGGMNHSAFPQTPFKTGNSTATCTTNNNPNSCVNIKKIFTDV

| SMILES | IC50 (Kv1.1) [nM] | Selectivity Kv1.1/Kv1.3 (Kv1.1) | IC50 (Kv1.2) [nM] | IC50 (Kv1.6) [nM] | Selectivity Kv1.6/Kv1.3 (Kv1.6) | IC50 (Kv1.3) [nM] | AUC(0-inf) (in vivo) [µM·h] | Cmax (in vivo) [nM] | half-life (in vivo) [min] | IC50 [1] [nM] | IC50 (Rat whole blood) [nM] |
| --- | --- | --- | --- | --- | --- | --- | --- | --- | --- | --- | --- |
| CC[C@H](C)[C@@H]1NC(=O)[C@H](C)NC(=O)[C@H](CCCCN)NC(=O)[C@H](CC(C)C)NC(=O)[C@@H]2CSSC[C@@H](C(=O)N[C@@H](Cc3ccc(O)cc3)C(=O)N3CCC[C@H]3C(=O)N[C@@H](CCCNC(=N)N)C(=O)O)NC(=O)[C@H](CCCCN)NC(=O)[C@@H]3CSSC[C@H](NC(=O)[C@H](CCC(=O)O)NC(=O)[C@H](C(C)C)NC(=O)[C@H](CO)NC(=O)[C@H](C)NC(=O)[C@H](CO)NC(=O)[C@@H](NC(=O)[C@H](CCCNC(=N)N)NC(=O)[C@H](CCSC)NC(=O)[C@H](CC(=O)O)NC(=O)[C@@H](N)CCSC)CSSC[C@H](NC(=O)[C@H](CCCCN)NC(=O)CNC(=O)[C@H](Cc4ccccc4)NC(=O)[C@H]([C@@H](C)CC)NC(=O)[C@H](CO)NC(=O)CNC1=O)C(=O)N[C@@H](CCSC)C(=O)N[C@@H](CC(N)=O)C(=O)N[C@@H](CCCCN)C(=O)N[C@@H](CCCCN)C(=O)N3)C(=O)N[C@@H](CCCCN)C(=O)N[C@@H](CCC(N)=O)C(=O)N[C@@H](CCCCN)C(=O)N2 [Compound 5] (H-MDMRCSASVECKQKCLKAIGSIFGKCMNKKCKCYPR-OH; disulfide 5-26, 11-31, 15-33) | > 3000 | >7900 | 285 | > 3000 | >7900 | 0.38 | 0.0724 | 48.4 | 55.8 | 0.25 | – |
| CC[C@H](C)[C@@H]1NC(=O)[C@H](C)NC(=O)[C@H](CCCCN)NC(=O)[C@H](CC(C)C)NC(=O)[C@@H]2CSSC[C@@H](C(=O)N[C@@H](Cc3ccc(O)cc3)C(=O)N3CCC[C@H]3C(=O)N[C@@H](CCCNC(=N)N)C(=O)O)NC(=O)[C@H](CCCCN)NC(=O)[C@@H]3CSSC[C@H](NC(=O)[C@H](CCC(=O)O)NC(=O)[C@H](C(C)C)NC(=O)[C@H](CO)NC(=O)[C@H](C)NC(=O)[C@H](CO)NC(=O)[C@@H](NC(=O)[C@H](CCCNC(=N)N)NC(=O)[C@H](CCSC)NC(=O)[C@H](CC(=O)O)NC(=O)[C@@H](NC(=O)[C@@H](N)CC(N)=O)[C@@H](C)CC)CSSC[C@H](NC(=O)[C@H](CCCCN)NC(=O)CNC(=O)[C@H](Cc4ccccc4)NC(=O)[C@H]([C@@H](C)CC)NC(=O)[C@H](CO)NC(=O)CNC1=O)C(=O)N[C@@H](CCSC)C(=O)N[C@@H](CC(N)=O)C(=O)N[C@@H](CCCCN)C(=O)N[C@@H](CCCCN)C(=O)N3)C(=O)N[C@@H](CCCCN)C(=O)N[C@@H](CCC(N)=O)C(=O)N[C@@H](CCCCN)C(=O)N2 [Compound 8] (H-NIDMRCSASVECKQKCLKAIGSIFGKCMNKKCKCYPR-OH; disulfide 6-27, 12-32, 16-34) | > 3000 | >6800 | 376 | > 3000 | >6800 | 0.44 | 0.0983 | 76.9 | 37.2 | 0.47 | – |
| CC[C@H](C)[C@@H]1NC(=O)[C@H](C)NC(=O)[C@H](CCCCN)NC(=O)[C@H](CC(C)C)NC(=O)[C@@H]2CSSC[C@@H](C(=O)N[C@@H](Cc3ccc(O)cc3)C(=O)N3CCC[C@H]3C(=O)N[C@@H](CCCNC(=N)N)C(N)=O)NC(=O)[C@H](CCCCN)NC(=O)[C@@H]3CSSC[C@H](NC(=O)[C@H](CCC(=O)O)NC(=O)[C@H](C(C)C)NC(=O)[C@H](CO)NC(=O)[C@H](C)NC(=O)[C@H](CO)NC(=O)[C@@H](NC(=O)[C@H](CCCNC(=N)N)NC(=O)[C@H](CCSC)NC(=O)[C@H](CC(=O)O)NC(=O)[C@H](CCSC)NC(=O)[C@@H](N)CC(N)=O)CSSC[C@H](NC(=O)[C@H](CCCCN)NC(=O)CNC(=O)[C@H](Cc4ccccc4)NC(=O)[C@H]([C@@H](C)CC)NC(=O)[C@H](CO)NC(=O)CNC1=O)C(=O)N[C@@H](CCSC)C(=O)N[C@@H](CC(N)=O)C(=O)N[C@@H](CCCCN)C(=O)N[C@@H](CCCCN)C(=O)N3)C(=O)N[C@@H](C)C(=O)N[C@@H](CCC(N)=O)C(=O)N[C@@H](CCCCN)C(=O)N2 [Compound 30] (H-NMDMRCSASVECAQKCLKAIGSIFGKCMNKKCKCYPR-NH2; disulfide 6-27, 12-32, 16-34) | > 3000 | >22000 | 666 | > 3000 | >22000 | 0.14 | 0.0467 | 33.3 | 44.4 | 0.09 | ≤ 1 |
| CC[C@H](C)[C@@H]1NC(=O)[C@H](C)NC(=O)[C@H](Cc2ccc(O)cc2)NC(=O)[C@H](CC(C)C)NC(=O)[C@@H]2CSSC[C@@H](C(=O)N[C@@H](Cc3ccc(O)cc3)C(=O)N3CCC[C@H]3C(=O)N[C@@H](CCCNC(=N)N)C(N)=O)NC(=O)[C@H](CCCCN)NC(=O)[C@@H]3CSSC[C@H](NC(=O)[C@H](CCC(=O)O)NC(=O)[C@H](C(C)C)NC(=O)[C@H](CO)NC(=O)[C@H](C)NC(=O)[C@H](CO)NC(=O)[C@@H](NC(=O)[C@H](CCCNC(=N)N)NC(=O)[C@H](CCSC)NC(=O)[C@H](CC(=O)O)NC(=O)[C@H](CCSC)NC(=O)[C@@H](N)CC(N)=O)CSSC[C@H](NC(=O)[C@H](CCCCN)NC(=O)CNC(=O)[C@H](Cc4ccccc4)NC(=O)[C@H]([C@@H](C)CC)NC(=O)[C@H](CO)NC(=O)CNC1=O)C(=O)N[C@@H](CCSC)C(=O)N[C@@H](CC(N)=O)C(=O)N[C@@H](CCCCN)C(=O)N[C@@H](CCCCN)C(=O)N3)C(=O)N[C@@H](CCCCN)C(=O)N[C@@H](CCC(N)=O)C(=O)N[C@@H](CCCCN)C(=O)N2 [Compound 53] (H-NMDMRCSASVECKQKCLYAIGSIFGKCMNKKCKCYPR-NH2; disulfide 6-27, 12-32, 16-34) | > 3000 | >10300 | 149 | > 3000 | >10300 | 0.29 | 0.0311 | 50 | 52.2 | 0.12 | – |
| CCCC[C@@H]1NC(=O)[C@@H]2CSSC[C@H](NC(=O)[C@@H](N)CCCNC(=N)N)C(=O)N[C@@H](CO)C(=O)N[C@@H](C)C(=O)N[C@@H](CO)C(=O)N[C@@H](C(C)C)C(=O)N[C@@H](CCC(=O)O)C(=O)N[C@H]3CSSC[C@H](NC(=O)[C@H](CCCCN)NC(=O)[C@H](CCCCN)NC(=O)[C@H](CC(N)=O)NC1=O)C(=O)N[C@@H](CCCCN)C(=O)N[C@H](C(=O)N[C@@H](Cc1ccc(O)cc1)C(=O)N1CCC[C@H]1C(=O)N[C@@H](CCCNC(=N)N)C(N)=O)CSSC[C@H](NC(=O)[C@H](CCCCN)NC(=O)[C@H](CCC(N)=O)NC(=O)[C@H](CCCCN)NC3=O)C(=O)N[C@@H](CC(C)C)C(=O)N[C@@H](CCCCN)C(=O)N[C@@H](C)C(=O)N[C@@H]([C@@H](C)CC)C(=O)NCC(=O)N[C@@H](CO)C(=O)N[C@@H]([C@@H](C)CC)C(=O)N[C@@H](Cc1ccccc1)C(=O)NCC(=O)N[C@@H](CCCCN)C(=O)N2 [Compound 106] (H-RCSASVECKQKCLKAIGSIFGKC[Nle]NKKCKCYPR-NH2; disulfide 2-23, 8-28, 12-30) | > 3000 | >7600 | 280 | 1300 | – | 0.4 | – | – | – | 0.092 | ≤ 1 |
| CCCC[C@@H]1NC(=O)[C@@H]2CSSC[C@H](NC(=O)[C@H](CCCCN)NC(=O)[C@H](CO)NC(C)=O)C(=O)N[C@@H](CO)C(=O)N[C@@H](C)C(=O)N[C@@H](CO)C(=O)N[C@@H](C(C)C)C(=O)N[C@@H](CCC(=O)O)C(=O)N[C@H]3CSSC[C@H](NC(=O)[C@H](CCCCN)NC(=O)[C@H](CCCCN)NC(=O)[C@H](CC(N)=O)NC1=O)C(=O)N[C@@H](CCCCN)C(=O)N[C@H](C(=O)N[C@@H](Cc1ccc(O)cc1)C(=O)N1CCC[C@H]1C(=O)N[C@@H](CCCNC(=N)N)C(N)=O)CSSC[C@H](NC(=O)[C@H](CCCCN)NC(=O)[C@H](CCC(N)=O)NC(=O)[C@H](CCCCN)NC3=O)C(=O)N[C@@H](CC(C)C)C(=O)N[C@@H](CCCCN)C(=O)N[C@@H](C)C(=O)N[C@@H]([C@@H](C)CC)C(=O)NCC(=O)N[C@@H](CO)C(=O)N[C@@H]([C@@H](C)CC)C(=O)N[C@@H](Cc1ccccc1)C(=O)NCC(=O)N[C@@H](CCCCN)C(=O)N2 [Compound 107] (Ac-SKCSASVECKQKCLKAIGSIFGKC[Nle]NKKCKCYPR-NH2; disulfide 3-24, 9-29, 13-31) | > 3000 | >3000 | 196 | 1450 | – | 1 | – | – | – | 0.084 | ≤ 1 |
| CCCC[C@@H]1NC(=O)[C@@H]2CSSC[C@H](NC(=O)[C@H](CCCNC(=N)N)NC(=O)[C@H](CC(C)C)NC(C)=O)C(=O)N[C@@H](CO)C(=O)N[C@@H](C)C(=O)N[C@@H](CO)C(=O)N[C@@H](C(C)C)C(=O)N[C@@H](CCC(=O)O)C(=O)N[C@H]3CSSC[C@H](NC(=O)[C@H](CCCCN)NC(=O)[C@H](CCCCN)NC(=O)[C@H](CC(N)=O)NC1=O)C(=O)N[C@@H](CCCCN)C(=O)N[C@H](C(=O)N[C@@H](Cc1ccc(O)cc1)C(=O)N1CCC[C@H]1C(=O)N[C@@H](CCCNC(=N)N)C(N)=O)CSSC[C@H](NC(=O)[C@H](CCCCN)NC(=O)[C@H](CCC(N)=O)NC(=O)[C@H](CCCCN)NC3=O)C(=O)N[C@@H](CC(C)C)C(=O)N[C@@H](CCCCN)C(=O)N[C@@H](C)C(=O)N[C@@H]([C@@H](C)CC)C(=O)NCC(=O)N[C@@H](CO)C(=O)N[C@@H]([C@@H](C)CC)C(=O)N[C@@H](Cc1ccccc1)C(=O)NCC(=O)N[C@@H](CCCCN)C(=O)N2 [Compound 108] (Ac-LRCSASVECKQKCLKAIGSIFGKC[Nle]NKKCKCYPR-NH2; disulfide 3-24, 9-29, 13-31) | > 3000 | >8700 | 122 | 2460 | – | 0.35 | – | – | – | 0.1 | ≤ 1 |

— patent US11780893B2, “Kv1.3 blockers” (Zealand Pharma A/S, priority 2019, dated 2023)
